The nature of this data set: gradient 5% acetonitrile 3 min, to 50% in 2 min, to 85% in 15 min, held 3 min, 100 µL/min. Particulars: column: Zorbax Extend-C18 2.1 x 50 mm; eluents: water / acetonitrile, 0.1% formic acid. Put shortly: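 Standards, all pure, were combined into mixtures of ~100 molecules and run at 100 μL/min on a Zorbax Extend-C18 column (2.1 × 50 mm, 1.8 μm) with water and acetonitrile, each containing 0.1% formic acid. A coupled quadrupole time-of-flight mass spectrometer operated in positive and negative ionization mode. Retention time values come from computationally picked adduct peaks, each inspected manually.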
`CC(=O)c1sc(NC(=O)c2c[nH]c3ccccc3c2=O)nc1C` displayed an RP-LC retention time of 615 s.

`Cn1cccc1C(=O)NCc1cnoc1-c1ccc(F)cc1` had an RP-LC retention time of 860 s.

Molecule `COc1cccc(NC(=O)NCCc2cn(C)c3ncccc23)c1` returned an RP-LC retention time of 662 s.

With `Cc1c(Cl)cccc1NC(=O)C1CCN(S(=O)(=O)c2ccc3c(c2)NC(=O)C(C)O3)CC1` (stereo not given), the RP-LC retention time was 858 s.

`Cc1ccc(Sc2nccnc2N2CCC(C(=O)N3CCN(c4ccccc4C)CC3)CC2)cc1` displayed an RP-LC retention time of 1330 s.

`CC1Cc2ccccc2N1C(=O)C1CCN(C(=O)c2cc(-c3ccncc3)n[nH]2)CC1` (stereo not given) had an RP-LC retention time of 645 s.

As for `COc1cccc(Nc2nc(C)c(C(=O)Nc3ccc(F)cc3F)s2)c1`, the RP-LC retention time is 955 s.

With `CCOc1ccc(-c2nc(CN3CCN(C(=O)NC(C)C)CC3)c(C)o2)cc1`, the RP-LC retention time amounted to 656 s.

Turning to `CCCn1c(=O)c(C)nc2cc(-c3noc(COc4ccc(OC)cc4)n3)ccc21`, the RP-LC retention time came to 1040 s.

The molecule `COc1ccc(CNC(=O)C2=C3CCCN3c3ccccc3S2(=O)=O)c(OC)c1` showed an RP-LC retention time of 835 s.

In turn, `COc1cc(C(=O)N(Cc2ccc(C(C)C)cc2)C2CCS(=O)(=O)C2)cc(OC)c1OC` (stereo not given) yielded an RP-LC retention time of 968 s.

Consider `CCN1C(=O)COc2ccc(-c3nc(NC(=O)C4CCCCC4)sc3C)cc21`, for which the RP-LC retention time is 652 s.

Take `COc1ccccc1CNC(=O)c1cn(C)nc1S(=O)(=O)N1CCSCC1`: the RP-LC retention time amounted to 847 s.

Regarding `Cc1cc(Br)ccc1NC(=O)C(=O)Nc1ccc2nc3n(c(=O)c2c1)CCCCC3`, the RP-LC retention time turned out to be 990 s.

Turning to `COCCc1noc(C2CN(C(=O)c3ocnc3C)C2)n1`, the RP-LC retention time is 595 s.

The molecule `COc1ccc(Cn2nnc(C(=O)O)c2C)cc1F` returned an RP-LC retention time of 645 s.

In turn, `CC(C)NC(=O)C(=O)NCc1n[nH]c(=O)c2ccccc12` yielded an RP-LC retention time of 621 s.

As to `Cc1ccc(CN2CCC(c3nc(-c4cnccn4)n[nH]3)CC2)o1`, the RP-LC retention time amounted to 566 s.

Molecule `CC1=C(c2ccc(F)cc2)S(=O)(=O)N=C1N1CCCN(C(=O)c2cccs2)CC1` gave an RP-LC retention time of 806 s.

As to `CCc1ccc(S(=O)(=O)Nc2cc(C(=O)O)ccc2N2CCN(c3ccccn3)CC2)cc1`, the RP-LC retention time was 669 s.

`Cc1ccccc1CC(=O)N1CCC(c2nc(C(=O)N3CCOCC3)c(C)o2)CC1` displayed an RP-LC retention time of 616 s.

Molecule `CNC(=O)C1CCCN(c2nc3ncn(CC(=O)NC4CCCCC4)c(=O)c3s2)C1` (stereo not given) came in with an RP-LC retention time of 632 s.

Molecule `CCCN1C(=O)CN(S(=O)(=O)c2ccccc2)CC1(C)C(=O)NCc1ccccc1` (stereo not given) gave an RP-LC retention time of 809 s.

`Cc1ccccc1NC(=O)C1CCN(S(=O)(=O)c2ccc3c(c2)NC(=O)C(C)O3)CC1` (stereo not given) yielded an RP-LC retention time of 815 s.

`Cc1oc(-c2[nH]ncc2C(=O)N2CCCC2)cc1S(=O)(=O)NCCC(C)C` displayed an RP-LC retention time of 736 s.

`CC(C)CCNC(=O)C1CCCN(c2nccn3nc(-c4ccccc4Cl)cc23)C1` (stereo not given) came in with an RP-LC retention time of 969 s.

In the case of `O=C(NCc1ccccc1)NCC1CCOCC1`, the RP-LC retention time was 651 s.

The molecule `CCOC(=O)C1CCN(c2ncccc2-c2nnc(-c3ccc(Cl)cc3)o2)CC1` yielded an RP-LC retention time of 1240 s.

The molecule `O=C(C1CCN(c2nc3ccc(-c4ccsc4)nc3s2)CC1)N1CCCC1` had an RP-LC retention time of 893 s.

As for `COc1cc(CNC(=O)CN2C(=O)C(C)(C)c3cc(C)ccc32)cc(OC)c1OC`, the RP-LC retention time came out at 794 s.

On to `CC(C)Cn1cc(CCNC(=O)Nc2cccc(Cl)c2)c2cccnc21`, for which the RP-LC retention time was 895 s.

In turn, `O=C(O)c1cccc2c1C(=O)c1cccc3snc-2c13` displayed an RP-LC retention time of 804 s.

`CCN(CC)C(=O)N1CCC(c2noc(-c3ccccc3)n2)C1` (stereo not given): the RP-LC retention time stood at 892 s.

In turn, `CS(=O)(=O)Nc1ccc([N+](=O)[O-])cc1OC1CCCCC1` registered an RP-LC retention time of 982 s.

Regarding `COc1ccc(NC(=O)C2CCCN(c3nnc4ccccn34)C2)cc1Cl` (stereo not given), the RP-LC retention time worked out at 702 s.

As for `COc1ccc(-c2nc3cnc(Br)cn3c2Nc2ccc3c(c2)OCO3)cc1`, the RP-LC retention time came out at 926 s.

For the molecule `Cc1ccc(NC(=O)N2CCN(Cc3nc4ccccc4o3)CC2)cc1`, the RP-LC retention time is 689 s.

The molecule `c1ccc(COCCc2noc(C3CN(Cc4ccncc4)C3)n2)cc1` showed an RP-LC retention time of 605 s.

For `O=C(CSc1nnc(-c2csc3c2CCCC3)o1)Nc1ccccc1`, the RP-LC retention time was determined as 769 s.

Consider `CCOc1ccccc1C(=O)NC(c1ccccc1)c1nnc(N2CCCC2)o1` (stereo not given), for which the RP-LC retention time was 896 s.

In turn, `Cc1cccc(N2CCN(C(=O)C3CCN(c4cnc5nccnc5c4)CC3)CC2)c1C` gave an RP-LC retention time of 881 s.

As to `CCc1cccc(C)c1Nc1c(-c2ccc(SC)cc2)nc2ncccn12`, the RP-LC retention time came out at 916 s.

`CCC1CN2C=NC(N3CCN(S(=O)(=O)Cc4cccc(F)c4)CC3)=CC2=N1` (stereo not given): the RP-LC retention time came out at 680 s.

Consider `Cc1noc([C@@H]2CN(C(=O)c3ccoc3C)C[C@H]2CO)n1`, for which the RP-LC retention time was determined as 610 s.

In turn, `O[C@H](CNC[C@@H](O)[C@H]1CCc2cc(F)ccc2O1)[C@@H]1CCc2cc(F)ccc2O1` showed an RP-LC retention time of 791 s.

As for `CCc1nnc(-c2cc(NC(=O)c3ccc4nc[nH]c4c3)c(C)s2)o1`, the RP-LC retention time turned out to be 632 s.

Consider `O=C(Cc1cccc(F)c1)N1CCc2nc(-c3ccc(Cl)cc3)ncc2C1`, for which the RP-LC retention time was 1060 s.

For `Clc1ccc(Sc2c(-c3ccc(Br)cc3)nc3ccccn23)cc1`, the RP-LC retention time was determined as 1290 s.

`O=C(c1cc2ccccc2[nH]1)N1CCCn2nc(-c3cccs3)cc2C1` had an RP-LC retention time of 899 s.

With `CCCS(=O)(=O)c1nc2ccc(NS(=O)(=O)c3ccc(OC)c(OC)c3)cc2s1`, the RP-LC retention time was 853 s.

In turn, `COc1ccc(C2Cn3nnc(-c4nc(-c5ccccc5Br)no4)c3CO2)cc1` (stereo not given) came in with an RP-LC retention time of 1150 s.

Turning to `Cc1ccc(CNC(=O)c2cn3c(n2)CCCC3)cc1`, the RP-LC retention time was 604 s.

The molecule `O=C(Nc1ccc2c(c1)OCCO2)N1CCN(c2nc3ccccc3n(Cc3ccccc3)c2=O)CC1` registered an RP-LC retention time of 1010 s.

`CC(C(=O)NCCc1c[nH]c2ccccc12)C1CCN(S(=O)(=O)c2ccc(Cl)s2)CC1` (stereo not given) returned an RP-LC retention time of 988 s.

`O=C(CCc1c(-c2cccc(Cl)c2)nc2ccccn12)N1CCN(c2ccc(F)cc2)CC1` displayed an RP-LC retention time of 724 s.

Turning to `Cc1ccc2nc(-c3ccccc3Cl)c(Nc3ccc(Cl)cc3)n2c1`, the RP-LC retention time turned out to be 780 s.

Consider `O=C(Nc1cccc(C(F)(F)F)c1)C1CCN(c2cc(-n3ccnc3)ncn2)CC1`, for which the RP-LC retention time was found to be 625 s.

Turning to `COC(=O)c1cccc(C(=O)N2CCN(c3cc(C)ccc3C)CC2)n1`, the RP-LC retention time worked out at 959 s.

As for `Cc1csc(NC(=O)c2ccc(C(=O)Nc3nc(C)cs3)cc2)n1`, the RP-LC retention time was determined as 845 s.

`Cc1ccc2c(c1)N(Cc1nc(-c3ccc(F)c(Cl)c3)no1)C(=O)CO2`: the RP-LC retention time turned out to be 1200 s.

Consider `O=C(NCc1cccs1)C1CCCN(c2nnc3ccc(Cl)cn23)C1` (stereo not given), for which the RP-LC retention time is 650 s.

Molecule `O=C(Cc1cccs1)N1CCC2(CC1)OCCN2S(=O)(=O)c1ccccc1` yielded an RP-LC retention time of 783 s.

As to `COc1cccc(-c2noc(N3CCCCC3)n2)c1`, the RP-LC retention time is 1070 s.

As for `O=C(CSc1nnc(NC(=O)c2ccccc2C(F)(F)F)s1)NC1CCCCC1`, the RP-LC retention time was 781 s.

`CC1CCCN(c2ccc(-c3noc(CN4CCN(c5ccccc5)CC4)n3)cn2)C1` (stereo not given): the RP-LC retention time turned out to be 1010 s.

In the case of `CCCN1C(=O)COc2ccc(-c3noc(COc4ccc(Cl)cc4)n3)cc21`, the RP-LC retention time worked out at 1190 s.

In the case of `COc1ccccc1N1CCN(c2ccnc(SCC(=O)Nc3ccccc3C)n2)CC1`, the RP-LC retention time stood at 666 s.

The molecule `COCCCNC(=O)c1ccc(-c2cnc(NC3CCCCC3)nc2)cc1` registered an RP-LC retention time of 806 s.

Turning to `O=C(Cn1cccc1-c1nc(-c2ccc3c(c2)OCO3)no1)N1CCCc2ccccc21`, the RP-LC retention time was 1120 s.

The molecule `O=C(Cn1ccc2ccccc21)Nc1nccs1` displayed an RP-LC retention time of 748 s.

`Cn1c(=O)n(C)c2cc(CNc3ccc(C(=O)O)c(Cl)c3)ccc21` came in with an RP-LC retention time of 697 s.

Molecule `Cc1ccc(NS(=O)(=O)c2cn(CC(C)C)c3ncccc23)c(F)c1` came in with an RP-LC retention time of 986 s.

For `O=C(CSc1nnc(-c2ccncc2)o1)N1CCCc2ccccc21`, the RP-LC retention time came out at 788 s.

`O=C(NC1CCCCCC1)c1ccc2ccnc(N3CCN(c4ccc(F)cc4)CC3)c2c1` came in with an RP-LC retention time of 973 s.

In turn, `CCc1noc2nc(C)n(CC(=O)NCC(C)c3ccccc3)c(=O)c12` (stereo not given) showed an RP-LC retention time of 835 s.

Molecule `COc1ccc(NC(=O)C2CC2)c2ccccc12` registered an RP-LC retention time of 729 s.

In the case of `CN1CCCn2nc(C3CCN(C(=O)CSc4ccncc4)CC3)cc2C1=O`, the RP-LC retention time amounted to 569 s.

For `COCCn1nc(N2CCCC(NS(=O)(=O)c3c(C)c(C)cc(C)c3C)C2)ccc1=O` (stereo not given), the RP-LC retention time was 875 s.

For the molecule `CCOC(=O)c1c(C)oc2ncnc(NCCc3c[nH]c4ccccc34)c12`, the RP-LC retention time worked out at 1050 s.

`O=C(Nc1ccc(N2CCN(c3ccccc3)C2=O)nc1)c1cccs1` had an RP-LC retention time of 836 s.

For the origin of these results see the METLIN SMRT retention time set (Domingo-Almenara et al. 2019).
